The target in one test is T1, AQ STING (G230A-R293Q) (Homo sapiens, UniProt Q86WV6, G230A/H232R/R293Q).
T1 construct: truncated human WT STING or AQ STING (amino acid residues 140-343); 8xHis (N, cleaved yes); SUMO (N, cleaved yes); made in house; host or cells: E. coli Rosetta-gami B (DE3)
The test can be described thus: Differential Scanning Fluorimetry with AQ STING. The settings on record: thermal shift, truncated human AQ STING 0.1 mg/ml, 150 μM CDN; for ΔTm at 150 µM: read-out: DSF ΔTm AQ STING. In kind it is binding. The protocol:
(§1) Purified PCR products were cleaved with restriction enzymes BamHI (cat. #R0136S, NEB, Ipswich, USA) and NotI (cat. #R0189S, NEB, Ipswich, USA) and cloned into the pSUMO vector linearized with the identical enzymes.
(§2) DNase I (cat. #D5025, Sigma Aldrich, Czech Republic) and RNase A (cat. #R6513, Sigma Aldrich, Czech Republic) were added (final concentration 50 μg/ml) together with MgCl2 (final concentration 5 mmol·l^−1) to the homogenate and bacteria were lysed using French Press G-M™ High-Pressure Cell Press Homogenizer (1500 psi, 3 cycles). […] The resin was poured into a chromatography column, washed with 50 ml buffer A (50 mmol·l^−1 TrisCl (pH 8.0), 800 mmol·l^−1 NaCl, 3 mmol·l^−1 β-mercaptoethanol; 10% glycerol; 20 mmol·l^−1 imidazole) and 8-His-SUMO tagged STING proteins were eluted with 15 ml buffer A containing 300 mmol·l^−1 imidazole. […] Proteins were concentrated with Amicon® Ultra-15 10 K device (cat. #UFC901008, Merck Millipore, Billerica, USA) and flash frozen in liquid N2.
(§3) 20 μL solutions of the reaction mixtures were pipetted in triplicates into 96 well optical reaction plates and thermal denaturation of samples were performed on real time PCR cycler (LightCycler® 480 Instrument II—Roche, Basel, Switzerland). The first derivative of the thermal denaturation curves was performed to calculate denaturing temperatures of STING-CDN complexes and STING apoproteins. The thermal shift for each CDN was calculated by subtracting the average denaturing temperature of STING apoprotein from the average denaturing temperature of STING CDN complex.
For orientation: In DSF a fluorescence change marks the thermal transition of the protein.

Test [1] deals with T2, WT STING (Homo sapiens, UniProt Q86WV6, H232R). Nature of the test: Digitonin assay using 293T wtSTING-FL reporter cells. It is filed as cell-based. The settings on record: 293T wtSTING-FL cells, ISRE firefly luciferase reporter, digitonin buffer 30 minutes, then 5 hours. The text has this: Two complementary oligonucleotides of the sequence […] […] […] […] […] […] […] The oligonucleotides were mixed in equal molar amounts, hybridized, and cleaved by restriction endonucleases HindIII (cat. #. R0104S, NEB, Ipswich, USA) and BglII (cat. #R0144S, NEB, Ipswich, USA). Ultimately, they were ligated into plasmid pGL4.27 (cat. #E6651, Promega, Madison, USA) linearized with the same enzymes. As result the sequence with four ISRE sites was placed upstream of the minimum promoter of firefly luciferase reporter gene.
After 5 minutes incubation at room temperature (RT), 250 μL of the mixture was added dropwise to the cells in one well. Cells were incubated 36 hours at 37° C. with 5% CO2, and then detached with 0.05% Trypsin and 0.22 g/L EDTA (both cat. #L0941, Biowest, Riverside, USA).
Transfected cells were seeded onto poly-D-lysine coated six well plates at density 50,000 cells per 1 cm^2 in DMEM medium with high glucose containing 10% heat inactivated FBS, 30 μg/mL blasticidin (cat. #ant-bl-05, InvivoGen, San Diego, USA), 0.06 mg/ml Penicillin G and 0.1 mg/ml Streptomycin Sulfate (both cat. #. L0018, Biowest, Riverside, USA). The medium was replenished every 3-4 days until visible colonies of cells resistant to blasticidin were formed.
Blasticidin resistant cells stably expressing WT STING were further transfected with pGL64.27-4×ISRE plasmid following the same procedure as described above. […] Homogeneous culture of stably double transfected cells was prepared by limiting dilution of cells in 96 well plates and wells with cells were selected that originated from a single cell.
The medium was removed next day and three fold serial dilutions of compounds in Digitonin buffer containing 50 mmol·l^−1 HEPES (cat. #H3375, Sigma Aldrich, Czech Republic) pH 7.0, 100 mmol·l^−1 KCl, 3 mmol·l^−1 MgCl2, 0.1 mmol·l^−1 DTT (cat. #D0632, Sigma Aldrich, Czech Republic), 85 mmol·l^−1 Sucrose (cat. #S7903, Sigma Aldrich, Česká Republika), 0.2% BSA (cat. #A2153, Sigma Aldrich, Czech Republic), 1 mmol·l^−1 ATP (cat. #A1852, Sigma Aldrich, Czech Republic), 0.1 mmol·l^−1 GTP (cat. #G8877, Sigma Aldrich, Czech Republic), and 10 μg/mL Digitonin A (cat. #D141, Sigma Aldrich, Czech Republic) were added to the cells. The buffer was removed after 30 minutes incubation at 37° C. with 5% CO2, the cells were washed once with 100 μl of cultivation medium, and 100 μl of medium was added to each well. The plates with cells were incubated for 5 hours at 37° C. with 5% CO2, 50 μl of the medium was removed and 30 μl of ONE-Glo™ Luciferase Assay System reagent (cat. #E6120, Promega, Madison, USA) was added to each well. Luminesce was read on Synergy H1 (Biotek, Winooski, USA).
Target sequence in this assay (Q86WV6 whole entry H232R): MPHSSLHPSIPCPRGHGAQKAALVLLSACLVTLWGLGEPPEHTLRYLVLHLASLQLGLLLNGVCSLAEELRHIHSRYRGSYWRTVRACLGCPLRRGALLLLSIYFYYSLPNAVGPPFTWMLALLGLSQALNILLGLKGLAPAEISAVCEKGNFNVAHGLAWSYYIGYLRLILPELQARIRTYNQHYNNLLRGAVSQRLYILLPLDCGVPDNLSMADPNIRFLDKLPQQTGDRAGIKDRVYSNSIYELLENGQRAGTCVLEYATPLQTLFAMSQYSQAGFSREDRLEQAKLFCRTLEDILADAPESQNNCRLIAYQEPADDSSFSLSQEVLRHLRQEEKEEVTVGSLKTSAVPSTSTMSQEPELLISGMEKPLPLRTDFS
A general note: Reporter assays use an easily measured gene product as a stand-in for the process of interest.

The target of test [2] is T2, WT STING. The test can be described thus: Differential Scanning Fluorimetry with WT STING. In kind it is binding. Also noted: truncated human WT STING or AQ STING (amino acid residues 140-343); 8xHis (N, cleaved yes); SUMO (N, cleaved yes); made in house; host or cells: E. coli Rosetta-gami B (DE3). The settings on record: thermal shift, truncated human WT STING 0.1 mg/ml, 150 μM CDN; for ΔTm at 150 µM: read-out: DSF ΔTm WT STING. The protocol: as §1, §2, §3
Target sequence in this assay (Q86WV6 140-343 H232R): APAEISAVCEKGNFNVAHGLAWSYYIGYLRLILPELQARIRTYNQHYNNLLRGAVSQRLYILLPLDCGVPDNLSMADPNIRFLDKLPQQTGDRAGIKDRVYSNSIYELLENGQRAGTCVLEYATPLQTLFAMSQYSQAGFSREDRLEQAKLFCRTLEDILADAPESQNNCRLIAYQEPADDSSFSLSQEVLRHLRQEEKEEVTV

The text below walks through data of patent publication US11292812B2, “3′3′-cyclic dinucleotides” (Institute of Organic Chemistry and Biochemistry, ASCR, V.V.I, priority 2018, dated 2022).

One may read the ΔTm as the shift of the melting midpoint relative to a reference. For orientation: EC50 means the concentration that produces a half-maximal response.

T1 sequence (Q86WV6 140-343 G230A/H232R/R293Q): as the sequence (Q86WV6 140-343 H232R) above, with G91A, R154Q counted along it

On to `Nc1nc2c(ncn2[C@@H]2O[C@@H]3COP(=O)(O)COC4C(O)[C@H](n5cnc6c(N)ncnc65)O[C@@H]4COP(=O)(O)OC3C2F)c(=O)[nH]1` (stereo partly drawn) [Example 5, 2-amino-9-((2R,3R,3aR,7aR,9R,10R,10aS,15aR)-9-(6-amino-9H-purin-9-yl)-3-fluoro-5,10,13-trihydroxy-5,13-dioxidodecahydro-2H-difuro[3,2-d:3′,2′-k][1,3,7,10]tetraoxa[2,8]diphosphacyclotridecin-2-yl)-1,9-dihydro-6H-purin-6-one], for which the ΔTm at 150 µM was determined as 12 °C at AQ STING (G230A-R293Q) and 4.1 °C at WT STING [2]. Besides, the EC50 on WT STING [1] came out at 100 nM.

For the compound `Nc1nc2c(ncn2[C@@H]2O[C@@H]3COP(=O)(O)OC4C(F)[C@H](n5cnc6c(=O)[nH]c(N)nc65)O[C@@H]4COP(=O)(O)COC3C2F)c(=O)[nH]1` (stereo partly drawn) [Example 16, 9,9′-((2R,3R,3aR,7aR,9R,10R,10aR,15aR)-3,10-difluoro-5,13-dihydroxy-5,13-dioxidodecahydro-2H-difuro[3,2-d:3′,2′-k][1,3,7,10]tetraoxa[2,8]diphosphacyclotridecine-2,9-diyl)bis(2-amino-1,9-dihydro-6H-purin-6-one)], the ΔTm at 150 µM at AQ STING (G230A-R293Q) worked out at 10.7 °C; at WT STING [2], 3.1 °C. On WT STING [1], the EC50 stood at 300 nM.

Regarding `Nc1nc2c(ncn2[C@H]2CC3OCP(=O)(O)OC[C@H]4O[C@@H](n5cnc6c(N)ncnc65)C(F)C4OP(=O)(O)OC[C@H]3O2)c(=O)[nH]1` (stereo partly drawn) [Example 14, 2-amino-9-((2R,3R,3aR,7aR,9R,10aS,15aR)-2-(6-amino-9H-purin-9-yl)-3-fluoro-5,13-dihydroxy-5,13-dioxidodecahydro-2H-difuro[3,2-d:3′,2′-k][1,3,7,10]tetraoxa[2,8]diphosphacyclotridecin-9-yl)-1,9-dihydro-6H-purin-6-one], the ΔTm at 150 µM worked out at 11.2 °C on AQ STING (G230A-R293Q) and 3.8 °C at WT STING [2]. Moreover, at WT STING [1], the EC50 is 90 nM.

For `Nc1nc2c(ncn2[C@@H]2O[C@@H]3COP(=O)(O)COC4C(F)[C@H](n5cnc6c(N)ncnc65)O[C@@H]4COP(=O)(O)OC3C2F)c(=O)[nH]1` (stereo partly drawn) [Example 8, 2-amino-9-((2R,3R,3aR,7aR,9R,10R,10aR,15aR)-9-(6-amino-9H-purin-9-yl)-3,10-difluoro-5,13-dihydrox-5,13-diox-idodecahdro-2H-difuro[3,2-d:3′,2′-k][1,3,7,10]tetraoxa[2,8]diphosphacyclotridecin-2-yl)-1,9-dihydro-6H-purin-6-one], the values for the ΔTm at 150 µM at AQ STING (G230A-R293Q) and on WT STING [2] were 18.6 °C and 10.7 °C, respectively. On WT STING [1], the EC50 was 8 nM.

Take `Nc1nc2c(ncn2[C@@H]2O[C@@H]3COP(=O)(O)COC4C(O)[C@H](n5cnc6c(=O)[nH]c(N)nc65)O[C@@H]4COP(=O)(O)COC3C2O)c(=O)[nH]1` (stereo partly drawn) [Example 6, 9,9′-((2R,3R,3aS,8aR,10R,11R,11aS,16aR)-3,6,11,14-tetrahydroxy-6,14-dioxidododecahydrodifuro[3,2-e:3′,2′-l][1,4,8,11]tetraoxa[2,9]diphosphacyclotetradecine-2,10-diyl)bis(2-amino-1,9-dihydro-6H-purin-6-one)]: the ΔTm at 150 µM is 0 °C on AQ STING (G230A-R293Q) and 0.1 °C on WT STING [2]. For the same compound, at WT STING [1], the EC50 is more than 50000 nM.

Take `Nc1nc2c(ncn2[C@@H]2O[C@@H]3COP(=O)(O)OC4C(O)[C@H](n5cnc6c(N)ncnc65)O[C@@H]4COP(=O)(O)COC3C2F)c(=O)[nH]1` (stereo partly drawn) [Example 11, 2-amino-9-((2R,3R,3aS,7aR,9R,10R,10aR,15aR)-2-(6-amino-9H-purin-9-yl)-10-fluoro-3,5,13-trihydroxy-5,13-dioxidodecahydro-2H-difuro[3,2-d:3′,2′-k][1,3,7,10][tetraoxa][2,8]diphosphacyclotridecin-9-yl)-1,9-dihydro-6H-purin-6-one]: the ΔTm at 150 µM is 11.3 °C at AQ STING (G230A-R293Q) and 7.3 °C at WT STING [2]. In addition, on WT STING [1], the EC50 stood at 50 nM.

As for `Nc1ncnc2c1ncn2[C@@H]1O[C@@H]2COP(=O)(O)COC3C(O)[C@H](n4cnc5c(N)ncnc54)O[C@@H]3COP(=O)(O)COC2C1O` (stereo partly drawn) [Example 9, (2R,3S,3aS,8aR,10R,11S,11aS,16aR)-2,10-bis(6-amino-9H-purin-9-yl)-3,6,11,14-tetrahydroxvdodecahydrodifuro[3,2-e:3′,2′-l][1,4,8,11]tetraoxa[2,9]diphosphacyclotetradecine 6,14-dioxide], on AQ STING (G230A-R293Q), the “DSF ΔTm AQ STING” value was found to be 0.1 °C. For the same compound, the EC50 on WT STING [1] was more than 100000 nM. In addition, the “DSF ΔTm WT STING” value at WT STING [2] was determined as 0.1 °C.

Take `Nc1nc2c(ncn2[C@@H]2O[C@@H]3COP(=O)(O)OC4C(F)[C@H](n5cnc6c(N)ncnc65)O[C@@H]4COP(=O)(O)COC3C2F)c(=O)[nH]1` (stereo partly drawn) [Example 12]: the results for the ΔTm at 150 µM on AQ STING (G230A-R293Q) and at WT STING [2] were 17.3 °C and 9.3 °C, respectively. For the same compound, on WT STING [1], the EC50 stood at 20 nM.

In the case of `Nc1nc2c(ncn2[C@@H]2O[C@@H]3COP(=O)(O)COC4C(O)[C@H](n5cnc6c(N)ncnc65)O[C@@H]4COP(=O)(O)OC3C2O)c(=O)[nH]1` (stereo partly drawn) [Example 3, 2-amino-9-((2R,3R,3aS,7aR,9R,10R,10aS,15aR)-9-(6-amino-9H-purin-9-yl)-3,5,10,13-tetrahydroxy-5,13-dioxidodecahydro-2H-difuro[3,2-d:3′,2′-k][1,3,7,10]tetraoxa[2,8]diphosphacyclotridecin-2-yl)-1,9-dihydro-6H-purin-6-one], the ΔTm at 150 µM at AQ STING (G230A-R293Q) is 3.1 °C; on WT STING [2], 0 °C. Moreover, the EC50 on WT STING [1] is 12500 nM.

For `Nc1nc2c(ncn2[C@@H]2O[C@@H]3COP(=O)(O)O[C@@H]4[C@H](O)[C@@H](COP(=O)(O)O[C@@H]2[C@@H]3O)O[C@H]4n2cnc3c(N)ncnc32)c(=O)[nH]1` [2′2′-cGAMP, reference compound], the “DSF ΔTm AQ STING” value at AQ STING (G230A-R293Q) was found to be 19.4 °C. In addition, the EC50 at WT STING [1] was 30 nM. For the same compound, the “DSF ΔTm WT STING” value at WT STING [2] is 11.5 °C.
